Patent publication US20220017566A1, “TERPINOID DERIVATIVES AND USES THEREOF” (SICHUAN HAISCO PHARMACEUTICAL CO., LTD., priority 2018, published 2022)
Where two headings read alike, the source gives them in different places.

Key:
[1] = tested on: IFNγ-induced NO production in Raw 264.7 cells; assay: Nitric oxide assay: suppression of IFNγ-induced NO production (Griess nitrite, adjusted to live cell numbers); format: cell-based; settings: Mus musculus, RAW264.7, 2 h pretreatment, IFNγ 10 ng/ml for 24 hours
Procedure: Raw 264.7 cells were seeded in 96-well plates at a density of 30, 000 cells per well in DMEM+10% FBS and incubated overnight. The next day, cell media was replaced by DMEM+2% FBS. Cells were pretreated with DMSO or test compounds (top dose 100 nM, 1:4 serial dilution, 10-point) for 2 hours and then treated with recombinant mouse IFNγ (R&D, Cat# 485-MI-100) at a final concentration of 10 ng/ml for 24 hours. Nitrite levels were measured in culture media as a surrogate for nitric oxide using the Griess Reagent System (Promega, Cat# G2930). Cell viability was determined using CellTiter Glo reagents (Promega, Cat#G7572). The nitrite levels were adjusted to live cell numbers and inhibition percentage was calculated. The inhibition percentage was then plotted against compound concentration, and IC50 values were calculated using four-parameter algorithm in Graphpad Prism.

[2] = target: T1, CYP1A2 (Homo sapiens, UniProt P05177); assay: CYP450 enzyme inhibition in liver microsomes (cocktail probe incubation); format: in vitro ADME; settings: species not given, 0.05-50 μM tested
T1 construct: studied in liver microsomes of CD-1 mouse, Sprague Dawley rat, Beagle dog, cynomolgus monkey, and human; from tissue; host or cells: liver microsomes
T1 sequence (P05177 1-516): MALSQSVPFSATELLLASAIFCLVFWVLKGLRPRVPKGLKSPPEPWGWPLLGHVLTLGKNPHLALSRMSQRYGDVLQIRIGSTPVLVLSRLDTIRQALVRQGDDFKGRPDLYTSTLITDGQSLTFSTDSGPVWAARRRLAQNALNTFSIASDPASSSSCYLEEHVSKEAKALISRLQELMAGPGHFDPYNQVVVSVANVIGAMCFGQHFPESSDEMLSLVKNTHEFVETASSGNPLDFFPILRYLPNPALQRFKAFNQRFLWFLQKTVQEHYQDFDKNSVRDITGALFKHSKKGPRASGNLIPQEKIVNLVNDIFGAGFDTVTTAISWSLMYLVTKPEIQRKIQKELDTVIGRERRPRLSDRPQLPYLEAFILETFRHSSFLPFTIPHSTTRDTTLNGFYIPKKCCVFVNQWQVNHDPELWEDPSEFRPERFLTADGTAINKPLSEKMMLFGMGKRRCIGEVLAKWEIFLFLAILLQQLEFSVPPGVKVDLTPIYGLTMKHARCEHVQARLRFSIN
Procedure: (§1) The inhibition potential of test compounds towards major drug metabolizing CYP450 enzymes was studied in liver microsomes of CD-1 mouse, Sprague Dawley rat, Beagle dog, cynomolgus monkey, and human. The inhibition of CYP1A2, CYP2C9, CYP2C19, CYP2D6, and CYP3A4 was assessed using CYP450 specific probe reactions in a cocktail incubation. Seven concentrations of test compounds (0.05, 0.15, 0.5, 1.5, 5, 15, and 50 μM) were evaluated. In addition, known inhibitors for each probe reaction were included as positive controls and incubated at a single concentration above their respective IC50.

[3] = target: T2, CYP2C19 (Homo sapiens, UniProt P33261); assay: as above; format: in vitro ADME; settings: species not given, 0.05-50 μM tested
T2 construct: studied in liver microsomes of CD-1 mouse, Sprague Dawley rat, Beagle dog, cynomolgus monkey, and human; from tissue; host or cells: liver microsomes
T2 sequence (P33261 whole entry): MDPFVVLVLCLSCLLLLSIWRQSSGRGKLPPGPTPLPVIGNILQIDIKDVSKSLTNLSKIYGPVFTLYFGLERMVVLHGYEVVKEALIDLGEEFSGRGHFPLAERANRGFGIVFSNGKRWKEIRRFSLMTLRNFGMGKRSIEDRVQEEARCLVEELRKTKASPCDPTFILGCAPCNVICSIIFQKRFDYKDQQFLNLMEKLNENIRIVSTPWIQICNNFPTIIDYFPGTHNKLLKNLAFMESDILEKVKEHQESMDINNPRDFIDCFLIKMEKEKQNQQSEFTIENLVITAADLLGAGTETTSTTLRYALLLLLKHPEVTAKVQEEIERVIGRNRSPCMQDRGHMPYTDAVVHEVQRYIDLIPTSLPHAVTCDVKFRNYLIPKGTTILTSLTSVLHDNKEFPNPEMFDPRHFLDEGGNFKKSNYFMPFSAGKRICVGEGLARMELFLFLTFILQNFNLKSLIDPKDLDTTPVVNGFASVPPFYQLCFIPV
Procedure: as §1

[4] = target: T3, CYP2C9 (Homo sapiens, UniProt P11712); assay: as above; format: in vitro ADME; settings: species not given, 0.05-50 μM tested
T3 construct: studied in liver microsomes of CD-1 mouse, Sprague Dawley rat, Beagle dog, cynomolgus monkey, and human; from tissue; host or cells: liver microsomes
T3 sequence (P11712 whole entry): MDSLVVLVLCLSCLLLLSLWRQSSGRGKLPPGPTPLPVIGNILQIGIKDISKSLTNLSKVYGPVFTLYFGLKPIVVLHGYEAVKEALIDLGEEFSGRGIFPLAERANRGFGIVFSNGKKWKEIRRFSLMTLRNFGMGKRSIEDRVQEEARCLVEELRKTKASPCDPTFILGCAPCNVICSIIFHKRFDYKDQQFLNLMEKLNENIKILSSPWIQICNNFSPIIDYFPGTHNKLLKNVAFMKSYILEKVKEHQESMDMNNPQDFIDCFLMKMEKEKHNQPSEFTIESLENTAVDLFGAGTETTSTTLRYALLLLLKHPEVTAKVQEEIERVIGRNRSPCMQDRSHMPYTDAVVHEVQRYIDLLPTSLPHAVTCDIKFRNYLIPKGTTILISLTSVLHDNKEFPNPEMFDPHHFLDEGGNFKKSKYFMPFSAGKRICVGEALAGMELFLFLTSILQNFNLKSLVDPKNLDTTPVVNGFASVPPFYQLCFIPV
Procedure: as §1

[5] = target: T4, CYP2D6 (Homo sapiens, UniProt P10635); assay: as above; format: in vitro ADME; settings: species not given, 0.05-50 μM tested
T4 construct: studied in liver microsomes of CD-1 mouse, Sprague Dawley rat, Beagle dog, cynomolgus monkey, and human; from tissue; host or cells: liver microsomes
T4 sequence (P10635 whole entry): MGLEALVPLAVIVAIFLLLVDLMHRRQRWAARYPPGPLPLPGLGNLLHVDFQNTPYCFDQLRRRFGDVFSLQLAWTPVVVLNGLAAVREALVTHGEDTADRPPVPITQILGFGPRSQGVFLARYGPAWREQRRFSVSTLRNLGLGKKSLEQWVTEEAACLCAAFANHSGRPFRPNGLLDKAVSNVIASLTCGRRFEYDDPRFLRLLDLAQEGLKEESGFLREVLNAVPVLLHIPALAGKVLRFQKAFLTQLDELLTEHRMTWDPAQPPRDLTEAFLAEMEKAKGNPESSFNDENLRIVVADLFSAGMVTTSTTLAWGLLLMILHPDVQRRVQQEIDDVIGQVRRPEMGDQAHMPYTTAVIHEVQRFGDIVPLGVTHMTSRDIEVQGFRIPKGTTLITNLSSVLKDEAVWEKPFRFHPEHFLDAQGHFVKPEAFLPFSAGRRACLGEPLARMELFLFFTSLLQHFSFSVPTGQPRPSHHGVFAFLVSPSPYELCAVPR
Procedure: as §1

[6] = target: T5, CYP3A4 (Homo sapiens, UniProt P08684); assay: as above; format: in vitro ADME; settings: species not given, 0.05-50 μM tested
T5 construct: studied in liver microsomes of CD-1 mouse, Sprague Dawley rat, Beagle dog, cynomolgus monkey, and human; from tissue; host or cells: liver microsomes
T5 sequence (P08684 whole entry): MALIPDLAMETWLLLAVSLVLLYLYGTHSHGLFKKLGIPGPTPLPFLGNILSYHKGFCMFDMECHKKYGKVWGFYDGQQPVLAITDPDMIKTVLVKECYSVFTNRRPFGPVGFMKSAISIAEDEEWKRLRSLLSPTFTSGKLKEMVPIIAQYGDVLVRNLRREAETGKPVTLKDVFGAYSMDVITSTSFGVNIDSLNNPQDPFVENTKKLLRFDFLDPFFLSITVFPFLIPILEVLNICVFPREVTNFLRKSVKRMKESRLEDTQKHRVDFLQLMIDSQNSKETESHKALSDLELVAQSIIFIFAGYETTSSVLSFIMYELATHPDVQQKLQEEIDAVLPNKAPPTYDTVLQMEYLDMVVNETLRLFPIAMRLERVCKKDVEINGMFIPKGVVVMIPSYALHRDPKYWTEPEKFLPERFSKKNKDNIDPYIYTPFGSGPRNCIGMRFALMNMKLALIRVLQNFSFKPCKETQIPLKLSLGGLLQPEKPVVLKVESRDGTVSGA
Procedure: as §1

[7] = Pharmacokinetic studies in Sprague Dawley rats (oral gavage and IV); format: in vivo; settings: rat, male SD rats, plasma; for AUC(0-t): read-out: AUC0-24 h; for bioavailability: oral 5 mg/kg vs IV 1 mg/kg, read-out: Bioavailibility F %
Procedure: The pharmacokinetics of test compounds was evaluated in male SD rats when administered via oral gavage and IV injection. For oral dosing, compound was formulated in 0.5% methylcellulose and administered at doses of 5 mg/kg (3 rats per dose level) and volume of 10 mL/kg. For IV dosing, compound was formulated in 5% DMSO/5% Solutol/90% saline and administered to 3 rats at a dose of 1 mg/kg and a volume of 5 mL/kg. The rats were fasted overnight before administration. Plasma samples were collected predose and at 0.5, 1, 3, 6, 9, 12, and 24 hours postdose. The samples were analyzed by LC/MS/MS and the concentration of test compound at each timepoint was determined by linear regression. Pharmacokinetic parameters were calculated from the plasma concentrations using Pheonix WinNonlin.

[8] = Metabolic stability in human liver microsomes; format: in vitro ADME
Procedure: (§2) The metabolic stability of test compounds was examined in CD-1 mouse, Sprague Dawley rat, Beagle dog, cynomolgus monkey, and human liver microsomes. Test compound (final concentration 1 μM) was mixed with diluted liver microsomes from each of the 5 species and a small aliquot was taken at 0, 5, 10, 20, 30, and 60 minutes for LC/MS/MS analysis. Intrinsic clearance and half-life were calculated.

[9] = Metabolic stability in rat liver microsomes; format: in vitro ADME; settings: Sprague Dawley
Procedure: as §2

[10] = Metabolic stability in mouse liver microsomes; format: in vitro ADME, CD-1 mouse; settings: CD-1
Procedure: as §2

[11] = Metabolic stability in dog liver microsomes; format: in vitro ADME; settings: Beagle
Procedure: as §2

[12] = Metabolic stability in monkey liver microsomes; format: in vitro ADME, cynomolgus monkey
Procedure: as §2

Compound | IC50 [1] [µM] | IC50 [2] [µM] | IC50 [3] [µM] | IC50 [4] [µM] | IC50 [5] [µM] | IC50 [6] [µM] | C0 ([7]; IV (1 mg/kg)) [ng/mL] | clearance ([7]; IV (1 mg/kg)) [mL/min/kg] | half-life ([7]; IV (1 mg/kg)) [h] | AUC(0-t) ([7]; IV (1 mg/kg)) [ng·h/mL] | Cmax ([7]; Oral (5 mg/kg)) [ng/mL] | half-life ([7]; Oral (5 mg/kg)) [h] | AUC(0-t) ([7]; Oral (5 mg/kg)) [ng·h/mL] | bioavailability [7] [%] | other results
CC1(C)C(=O)C(C#N)=C[C@]2(C)C3=CC(=O)[C@@H]4[C@@H]5C[C@@](C)(N6CCOC6=O)CC[C@]5(C)CC[C@@]4(C)[C@]3(C)CC[C@@H]12 [Example 13, (4aR,6aS,6bR,8aS,11S,12aS,12bR,14bS)-4,4,6a,6b,8a,11,14b-heptamethyl-3,13-dioxo-11-(2-oxooxazolidin-3-yl)-3,4,4a,5,6,6a,6b,7,8,8a,9,10,11,12,12a,12b,13,14b-octadecahydropicene-2-carbonitrile] | < 0.01 | > 50 | 11.7 | 1.9 | > 50 | 1.9 | 355 | 78.9 | 2.2 | 206 | 45 | 2.1 | 197 | 19.2 | 
CC1(C)C(=O)C(C#N)=C[C@]2(C)C3=CC(=O)[C@@H]4[C@@H]5C[C@@](C)(Cc6nnco6)CC[C@]5(C)CC[C@@]4(C)[C@]3(C)CC[C@@H]12 [Example 14, (4aR,6aS,6bR,8aR,11S,12aS,12bR,14bS)-11-((1,3,4-oxadiazol-2-yl)methyl)-4,4,6a,6b,8a,11,14b-heptamethyl-3,13-dioxo-3,4,4a,5,6,6a,6b,7,8,8a,9,10,11,12,12a,12b,13,14b-octadecahydropicene-2-carbonitrile] | < 0.01 | > 50 | 6.2 | 3 | 10.3 | 1 |  |  |  |  |  |  |  |  | CLint scaled at 1 μM [8]: 87.9 mL/min/kg; half-life at 1 μM [8]: 0.237 h; CLint scaled at 1 μM [9]: 695 mL/min/kg; half-life at 1 μM [9]: 3.6 min; CLint scaled at 1 μM [10]: 1460 mL/min/kg; half-life at 1 μM [10]: 3.8 min; CLint scaled at 1 μM [11]: 228 mL/min/kg; half-life at 1 μM [11]: 8.8 min; CLint scaled at 1 μM [12]: 602 mL/min/kg; half-life at 1 μM [12]: 3.1 min
Cc1noc([C@@]2(C)CC[C@]3(C)CC[C@]4(C)[C@H](C(=O)C=C5[C@@]6(C)C=C(C#N)C(=O)C(C)(C)[C@@H]6CC[C@]54C)[C@@H]3C2)n1 [Example 15, (4aR,6aS,6bR,8aS,11S,12aS,12bR,14bS)-4,4,6a,6b,8a,11,14b-heptamethyl-11-(3-methyl-1,2,4-oxadiazol-5-yl)-3,13-dioxo-3,4,4a,5,6,6a,6b,7,8,8a,9,10,11,12,12a,12b,13,14b-octadecahydropicene-2-carbonitrile] | < 0.01 | > 50 | 13.6 | 2.6 | 36.2 | 1.6 | 380 | 47 | 2.8 | 329 | 89 | 1.7 | 412 | 25 | 
CC1(C)C(=O)C(C#N)=C[C@]2(C)C3=CC(=O)[C@@H]4[C@@H]5C[C@@](C)(c6nnc(C(=O)NC7CC7)o6)CC[C@]5(C)CC[C@@]4(C)[C@]3(C)CC[C@@H]12 [Example 19, 5-((2S,4aS,6aR,6bS,8aR,12aS,14aR,14bS)-11-cyano-2,4a,6a,6b,9,9,12a-heptamethyl-10,14-dioxo-1,2,3,4,4a,5,6,6a,6b,7,8,8a,9,10,12a,14,14a,14b-octadecahydropicen-2-yl)-N-cyclopropyl-1,3,4-oxadiazole-2-carboxamide] | < 0.01 | > 50 | 5.8 | 1.2 | 8.4 | 2.1 | 703 | 32.5 | 1.8 | 496 | 63 | 4.5 | 364 | 14.7 | 

The next lines start with results.

IC50 [1] [µM] | IC50 [2] [µM] | IC50 [3] [µM] | IC50 [4] [µM] | IC50 [5] [µM] | IC50 [6] [µM] | C0 ([7]; IV (1 mg/kg)) [ng/mL] | clearance ([7]; IV (1 mg/kg)) [mL/min/kg] | half-life ([7]; IV (1 mg/kg)) [h] | AUC(0-t) ([7]; IV (1 mg/kg)) [ng·h/mL] | Cmax ([7]; Oral (5 mg/kg)) [ng/mL] | half-life ([7]; Oral (5 mg/kg)) [h] | AUC(0-t) ([7]; Oral (5 mg/kg)) [ng·h/mL] | bioavailability [7] [%] | Compound | other results
< 0.01 | > 50 | 9.7 | 2.7 | > 50 | 2.8 | 359 | 85.7 | 1.7 | 191 | 29 | 4.1 | 94 | 9.9 | CC1(C)C(=O)C(C#N)=C[C@]2(C)C3=CC(=O)[C@@H]4[C@@H]5C[C@@](C)(N6CCCC6=O)CC[C@]5(C)CC[C@@]4(C)[C@]3(C)CC[C@@H]12 [Example 12, (4aR,6aS,6bR,8aS,11S,12aS,12bR,14bS)-4,4,6a,6b,8a,11,14b-heptamethyl-3,13-dioxo-11-(2-oxopyrrolidin-1-yl)-3,4,4a,5,6,6a,6b,7,8,8a,9,10,11,12,12a,12b,13,14b-octadecahydropicene-2-carbonitrile] | 
< 0.01 | > 50 | 19.6 | 4.7 | > 50 | 2.1 | 472 | 62.5 | 1.4 | 267 | 50 | 2.3 | 181 | 13.6 | CC1(C)C(=O)C(C#N)=C[C@]2(C)C3=CC(=O)[C@@H]4[C@@H]5C[C@@](C)(N6C(=O)CCC6=O)CC[C@]5(C)CC[C@@]4(C)[C@]3(C)CC[C@@H]12 [Example 18, (4aR,6aS,6bR,8aS,11S,12aS,12bR,14bS)-11-(2,5-dioxopyrrolidin-1-yl)-4,4,6a,6b,8a,11,14b-heptamethyl-3,13-dioxo-3,4,4a,5,6,6a,6b,7,8,8a,9,10,11,12,12a,12b,13,14b-octadecahydropicene-2-carbonitrile] | 
